Source: patent publication US20040146585A1, “Use of thiol-based compositions in treating chemotherapeutic agent-induced thrombocytopenia” (Oregon Health & Science University, priority 2002, published 2004)

Tested on: patients with malignant brain tumors
Excerpt: Blood/bone marrow toxicity data from patients with malignant brain tumors treated with carboplatin-based regimens with or without delayed high-dose STS were graded in accordance with National Cancer Institute Common Toxicity Criteria (NCI CTC) (version 2.0).
Treatment Regimen. Patients with a variety of malignant brain tumor histologies, including metastases to the brain, were eligible for treatment. Patients who had previously undergone central nervous system or systemic radiotherapy or chemotherapy were eligible, however 2 weeks must have elapsed since prior radiotherapy and 4 weeks since prior chemotherapy. Patients were required to have normal hematologic, renal and hepatic function.
The BBBD procedure was done on two consecutive days, approximately every 4 weeks for up to 12 months. Mannitol (25%) was infused (5-10 cc/sec) into the appropriate internal carotid or vertebral artery, depending on tumor location, for 30 seconds. The combination chemotherapy regimen consisted of cyclophosphamide (330 Mg/m^2/day×2 days; total dose, 660 mg/m^2) (i.v.) beginning approximately 20 minutes before the mannitol infusion, carboplatin (200 mg/m^2/day×2 days; total dose, 400 Mg/m^2) (i.a.) administered over 10 minutes, within 5 minutes after the mannitol, and etoposide (i.v.) or etoposide phosphate (200 mg/m^2/day×2 days; total dose, 400 mg/m^2) (i.a. or i.v.). Patients received granulocyte-colony stimulating factor (G-CSF) (5 mcg/kg) for 10 days after chemotherapy or until the absolute neutrophil count was greater than 1000/μL.
STS was available as a 25% (250 mg/ml) solution. Dose was determined (16 or 20 grams/m^2) and mixed with an equivalent amount of sterile water (1 ml: 1 ml) for infusion. […] The most commonly used regimen was benadryl (12.5 mg), dexamethasone (6 mg), and if needed, ativan (0.5-1.0 mg), i.v. 30-45 minutes before STS.
STS was administered i.v. over about 15 minutes. The number of STS doses the patient received depended on the patient baseline hearing status, and whether they experienced an ototoxic shift during treatment. Patients treated with BBBD/STS received STS in one dose (20 grams/m^2) 4 hours after carboplatin (n=10), or two doses (20 grams/m^2 at 4 hrs, and 16 grams/m^2 at 8 hours) after carboplatin (n=19).
Because malignant brain tumor patients are at risk for intracerebral hemorrhage, patients underwent platelet transfusion when platelet count was <20×10^3/mm^3. Following a platelet transfusion, on subsequent chemotherapy courses the carboplatin dose was reduced 25%.
Data Analysis. Blood/bone marrow toxicity data were graded in accordance with NCI CTC and analyzed in the following […] treatment groups: 1) patients treated with carboplatin, cyclophosphamide and etoposide with BBBD and without STS, and 2) patients treated with carboplatin, cyclophosphamide and etoposide phosphate with BBBD and with STS. For both groups, blood/bone marrow toxicity data from all carboplatin-based courses of patients in treatment were included in the analysis.
First, platelet nadirs were plotted for each subject and as means for each of the three study groups. For group comparisons, a mixed, repeated measures analysis of variance (ANOVA) model was fit using the parameter platelet nadir for each course as the measure. Gender, […] (≧70 or not), prior chemotherapy, prior radiation, and age at first course were included as covariates. Several other events were examined including grade 3 or 4 platelet toxicity as defined by NCI CTC, platelet transfusion, and the need for hematologically driven chemotherapy dose reduction. […] For present/absent outcomes as these, a mixed model repeated measures analysis (using the present/absent outcomes as the best response for each course) was performed. The mixed model ANOVA's using presence/absence of the outcome was adjusted for the covariates listed above.
Analyses were performed using Version 8.01 of SAS® for Windows.

Compound: O=S([O-])([O-])=S.[Na+].[Na+] [STS, sodium thiosulfate]
- adverse effects caused by high-dose STS (16 or 20 grams/m^2 i.v., National Cancer Institute CTC, version 2.0): transient hypematremia, hypertension, and controllable grade II nausea and vomiting
- patients requiring dose reduction of carboplatin (BBBD with STS): no patients
- Platelet Nadir <20 × 10^3/mm^3, percent of carboplatin courses (BBBD/STS, 129 courses): 1% courses
- Platelet Transfusions, percent of carboplatin courses (BBBD/STS, 129 courses): 2% courses
- Dose Reductions of carboplatin, percent of patients (BBBD/STS, n = 29): 0% pts
- Platelet Transfusions, percent of patients (BBBD/STS, n = 29): 7% pts
- Platelet Nadir <20 × 10^3/mm^3, percent of patients (BBBD/STS, n = 29, carboplatin, cyclophosphamide, etoposide phosphate, STS i.v. 20 grams/m^2 at 4 h (and 16 grams/m^2 at 8 h) after carboplatin): 4% pts
- grade 3 or 4 white blood cell toxicity, treatment groups with vs without STS (NCI CTC): no significant difference among treatment groups
- grade 3 or 4 platelet toxicity, treatment groups with vs without STS (NCI CTC, adjusted for age at first carboplatin treatment, p=0.14): no significant difference among the treatment groups
- rates of dose reduction of carboplatin, treatment groups with vs without STS (Pearson chi-square test): difference between the treatment groups was significant
- platelet transfusion (present or absent), treatment groups with vs without STS (mixed model, p=0.035): significant difference between the treatment groups
- platelet nadir <20×10^3/mm^3 (binary), treatment groups with vs without STS (mixed-model analysis of variance controlling for KPS≧70 and prior chemotherapy, p=0.0002): significant difference among the two treatment groups
- estimated probabilities of platelet transfusions (patients treated with BBBD and STS, mixed model estimate (22.4% for BBBD without STS)): 9.0%
